Measured values reported in the SangsterLogP compilation.

Experiment: method code SF, from DOI: 10.1002/em.2850190107, PMID: 1732103

| SMILES | logP |
| --- | --- |
| COc1ccc(N)c(C)c1 | 1.23 |
| Nc1cc(Cl)ccc1O | 1.81 |
| Nc1cc2ccccc2c2ccccc12 | 3.56 |
| COc1cc(-c2ccc(N)c(OC)c2)ccc1N | 1.81 |
| Nc1ccc2c(c1)Cc1ccccc1-2 | 3.14 |
| Nc1ccc(Oc2ccc(N)cc2)cc1 | 1.36 |
| Nc1ccc2c3c(cccc13)-c1ccccc1-2 | 4.2 |
| Nc1cccc(C(F)(F)F)c1 | 2.29 |
| Cc1ccc(N)c(N)c1 | 0.66 |
| Cc1ccc(C)c(N)c1 | 1.83 |
| Nc1ccccc1-c1ccccc1N | 1.34 |
| Cc1ccc(N)cc1N | 0.14 |
| Nc1cccc2c1Cc1ccccc1-2 | 3.18 |
| Nc1ccc2c(c1)Cc1cc(Br)ccc1-2 | 3.92 |
| Nc1cccc2cc3ccccc3cc12 | 3.69 |
